In patent publication US10242162B2 (LG Chem, Ltd., priority 2014, dated 2019):

Assay: Solubility measurement in water (Test Example)
Type: physicochemical
Details: 25° C., 1 atm, 24 hr
Experimental: In order to evaluate the validity of the method of determining the water insolubility according to the present invention in the Example and Comparative Example, the following testing was performed.

SMILES	amount dissolved in 100 g of water	water solubility (in words) (100 g of water)
CCC(C)O (centres unmarked) [2-butanol]	30 g	–
c1ccc2ccccc2c1 [Bicyclo[4.4.0]deca-1,3,5,7,9-pentene]	–	approximated zero
